How the values were obtained:
[1] = Regional brain distribution in rats (dissection, iv injection); type: in vivo; details: rat, listed as I-TBZ peak B
Experimental: Regional brain distribution of [^123 I]I-TBZ (with either a racemic mixture, peak A or B) in rats was obtained after an iv injection. By dissecting, weighing and counting samples from different brain regions (cortex, striatum, hippocampus and cerebellum), % dose/gram of the samples was calculated by comparing the sample counts with the counts of the diluted initial dose. The ratio of uptake in each region was obtained by dividing % dose/gram of each region with that of the cerebellum. The effect of tetrahydrobenazine on the uptake of peak A or peak B was investigated by pretreating the rats with the TBZ 3 mg/rat at 3 min before iv injection of [^123 I]I-TBZ. At 20 min. post injection the rats were dissected and the regional brain dissection was carried out as above.

[2] = Biodistribution in rats (iv injection); type: in vivo; details: rat, iv
Experimental: While under ether anesthesia, each rat was injected in the femoral vein with 0.2 mL saline solution containing [^123 I]I-TBZ (1-5uCi) either racemic mixture, peak-A or peak-B. The rats were sacrificed at various time points postinjection by cardiac excision. The tissues were weighed and the radioactivity was measured with a Canberra gamma counter (Model 5000). The percent dose per organ was calculated by a comparison of the tissue counts to suitably diluted aliquots of the injected material. Total activities of blood and muscle were calculated assuming that they were 7% and 40% of total body weight, respectively Results are presented in Tables 3, 4A and 4B.

rat plasma [3] = assay: Protein binding by Filter (50% rat plasma, Amicon micropartition system); type: in vitro ADME; details: 30 min, 37° C.
Experimental: One mL of rat plasma (50%) was mixed with [^123 I]I-TBZ in a test tube. After 30 min incubation at 37° C., 50 uL ×3 of liquid was removed as initial dose standard (I.D.); the rest was passed through an Amicon micropartition system (Amicon division, W. R. Grace, Danvers, Mass.) by centrifuging for 20 minutes (2,000 rpm) at 0° C. Four samples (50 uL each) were removed from the filtered solution and counted. The protein binding (% bound) was calculated by using the unit counts in filtrate divided by unit counts in ID.

rat plasma [4] = assay: Protein binding by TCA (10% rat plasma, 30 min, 37° C.); type: in vitro ADME; details: TCA precipitation
Experimental: One ml of 10% rat plasma was mixed with [^123 I]I-TBZ in a test tube and the mixture was incubated for 30 minutes at 37° C. To the mixture 0.4 mL of 10% trichloroacetic acid (TCA) was added. The test tube was centrifuged for 10 min. (4,000 rpm), and the top aqueous layer was removed to another test tube for counting The precipitate was washed with water (0.5 mL×2). The combined water and top aqueous layer was counted. The residual precipitate was also counted. The protein binding was obtained by dividing counts in precipitate with counts in aqueous layers.

[5] = normal and lesioned brain sections; cited from earlier work
[6] = tested on: monoamine transporter of chromaffin granules and CNS synaptic vesicles; details: cited from earlier work

With `COc1cc2c(cc1OC)C1CC(O)(C=C[123I])C(CC(C)C)CN1CC2` (single isomer, unassigned) [Peak B] the “Regional brain uptake, Rem” value ([1]; 5 min) was 0.465 ± 0.070 % Dose/g, the “Regional brain uptake, cerebellum” value ([1]; 5 min) was 0.449 ± 0.067 % Dose/g and the “Regional brain uptake, cortex” value ([1]; 5 min) was 0.514 ± 0.066 % Dose/g. For the same molecule, the “Regional brain uptake, hippocampus” value ([1]; 5 min) was 0.458 ± 0.074 % Dose/g, the “Regional brain uptake, striatum” value ([1]; 5 min) was 0.482 ± 0.066 % Dose/g and the “Str./Cb (% dose/gram ratio)” value ([1]; 5 min) was 1.07. The “Regional brain uptake, Rem” value ([1]; 20 min) was 0.172 ± 0.011 % Dose/g, the “Regional brain uptake, cerebellum” value ([1]; 20 min) was 0.162 ± 0.017 % Dose/g and the “Regional brain uptake, cortex” value ([1]; 20 min) was 0.183 ± 0.012 % Dose/g. The “Regional brain uptake, hippocampus” value ([1]; 20 min) was 0.189 ± 0.012 % Dose/g, the “Regional brain uptake, striatum” value ([1]; 20 min) was 0.189 ± 0.001 % Dose/g and the “Str./Cb (% dose/gram ratio)” value ([1]; 20 min) was 1.17. For the same molecule, the “Regional brain uptake, Rem” value ([1]; 60 min) was 0.057 ± 0.006 % Dose/g, the “Regional brain uptake, cerebellum” value ([1]; 60 min) was 0.055 ± 0.005 % Dose/g and the “Regional brain uptake, cortex” value ([1]; 60 min) was 0.060 ± 0.007 % Dose/g. The “Regional brain uptake, hippocampus” value ([1]; 60 min) was 0.058 ± 0.009 % Dose/g, the “Regional brain uptake, striatum” value ([1]; 60 min) was 0.062 ± 0.002 % Dose/g and the “Str./Cb (% dose/gram ratio)” value ([1]; 60 min) was 1.13. The “Regional brain uptake, Rem” value ([1]; 120 min) was 0.027 ± 0.004 % Dose/g, the “Regional brain uptake, cerebellum” value ([1]; 120 min) was 0.027 ± 0.005 % Dose/g and the “Regional brain uptake, cortex” value ([1]; 120 min) was 0.028 ± 0.005 % Dose/g. For the same molecule, the “Regional brain uptake, hippocampus” value ([1]; 120 min) was 0.027 ± 0.004 % Dose/g, the “Regional brain uptake, striatum” value ([1]; 120 min) was 0.027 ± 0.003 % Dose/g and the “Str./Cb (% dose/gram ratio)” value ([1]; 120 min) was 1.00. For the same molecule, the “Blood uptake (blood assumed 7% of body weight)” value ([2]; 5 min) was 4.74 ± 0.36 % Dose/organ, the “Br/Bl (% dose/gram ratio)” value ([2]; 5 min) was 1.54 ± 0.16 and the Brain uptake ([2]; 5 min) was 0.74 ± 0.07 % Dose/organ. For the same molecule, the Heart uptake ([2]; 5 min) was 0.63 ± 0.03 % Dose/organ, the Kidney uptake ([2]; 5 min) was 2.18 ± 0.34 % Dose/organ and the Liver uptake ([2]; 5 min) was 22.61 ± 1.85 % Dose/organ. For the same molecule, the Lung uptake ([2]; 5 min) was 2.02 ± 0.22 % Dose/organ, the “Muscle uptake (muscle assumed 40% of body weight)” value ([2]; 5 min) was 21.12 ± 1.36 % Dose/organ and the Skin uptake ([2]; 5 min) was 7.64 ± 3.09 % Dose/organ. For the same molecule, the Spleen uptake ([2]; 5 min) was 0.46 ± 0.03 % Dose/organ, the Thyroid uptake ([2]; 5 min) was 0.07 ± 0.01 % Dose/organ and the “Blood uptake (blood assumed 7% of body weight)” value ([2]; 20 min) was 2.76 ± 0.42 % Dose/organ. The “Br/Bl (% dose/gram ratio)” value ([2]; 20 min) was 1.06 ± 0.22, the Brain uptake ([2]; 20 min) was 0.27 ± 0.02 % Dose/organ and the Heart uptake ([2]; 20 min) was 0.35 ± 0.02 % Dose/organ. The Kidney uptake ([2]; 20 min) was 1.37 ± 0.11 % Dose/organ, the Liver uptake ([2]; 20 min) was 17.25 ± 1.25 % Dose/organ and the Lung uptake ([2]; 20 min) was 1.05 ± 0.04 % Dose/organ. For the same molecule, the “Muscle uptake (muscle assumed 40% of body weight)” value ([2]; 20 min) was 19.78 ± 1.90 % Dose/organ, the Skin uptake ([2]; 20 min) was 8.37 ± 1.15 % Dose/organ and the Spleen uptake ([2]; 20 min) was 0.28 ± 0.03 % Dose/organ. For the same molecule, the Thyroid uptake ([2]; 20 min) was 0.05 ± 0.01 % Dose/organ, the “Blood uptake (blood assumed 7% of body weight)” value ([2]; 60 min) was 1.89 ± 0.13 % Dose/organ and the “Br/Bl (% dose/gram ratio)” value ([2]; 60 min) was 0.47 ± 0.05. The Brain uptake ([2]; 60 min) was 0.087 ± 0.01 % Dose/organ, the Heart uptake ([2]; 60 min) was 0.16 ± 0.01 % Dose/organ and the Kidney uptake ([2]; 60 min) was 0.70 ± 0.06 % Dose/organ. The Liver uptake ([2]; 60 min) was 8.36 ± 1.01 % Dose/organ, the Lung uptake ([2]; 60 min) was 0.46 ± 0.03 % Dose/organ and the “Muscle uptake (muscle assumed 40% of body weight)” value ([2]; 60 min) was 11.80 ± 2.02 % Dose/organ. It also gave a Skin uptake ([2]; 60 min) of 5.45 ± 0.64 % Dose/organ, a Spleen uptake ([2]; 60 min) of 0.14 ± 0.03 % Dose/organ and a Thyroid uptake ([2]; 60 min) of 0.13 ± 0.03 % Dose/organ. For the same molecule, the “Blood uptake (blood assumed 7% of body weight)” value ([2]; 120 min) was 1.89 ± 0.34 % Dose/organ, the “Br/Bl (% dose/gram ratio)” value ([2]; 120 min) was 0.25 ± 0.03 and the Brain uptake ([2]; 120 min) was 0.042 ± 0.008 % Dose/organ. For the same molecule, the Heart uptake ([2]; 120 min) was 0.09 ± 0.02 % Dose/organ, the Kidney uptake ([2]; 120 min) was 0.36 ± 0.09 % Dose/organ and the Liver uptake ([2]; 120 min) was 4.35 ± 0.50 % Dose/organ. For the same molecule, the Lung uptake ([2]; 120 min) was 0.27 ± 0.08 % Dose/organ, the “Muscle uptake (muscle assumed 40% of body weight)” value ([2]; 120 min) was 5.72 ± 1.20 % Dose/organ and the Skin uptake ([2]; 120 min) was 4.80 ± 0.46 % Dose/organ. For the same molecule, the Spleen uptake ([2]; 120 min) was 0.06 ± 0.01 % Dose/organ, the Thyroid uptake ([2]; 120 min) was 0.47 ± 0.14 % Dose/organ and the “Protein binding, by Filter” value (rat plasma [3]) was 83.7 ± 0.8 % bound. The “Protein binding, by TCA” value (rat plasma [4]) was 40.8 ± 0.6 % bound.

In the case of `COc1cc2c(cc1OC)C1CC(O)C(CC(C)C)CN1CC2` (stereo not shown) [[^3 H]dihydro-TBZ, 2-hydroxy-3-(2-methylpropyl)-9,10-dimethoxy-1,3,4,6,7,11b-hexahydro-2H -benzo[a]quinolizine], the “Regional distribution of binding sites in brain sections (in words)” value [5] is listed as “corresponded to the monoamine cell bodies and nerve endings”, the “binding affinity for the transporter (in words)” value [6] is listed as “does not affect the binding affinity” and the Kd ([6]; membranes of chromaffin granules and brain tissue samples, in vitro, read-out: binding affinity Kd) is listed as 2 to 9 nM.
